# Biological target: T1, recombinant human GR (Homo sapiens, UniProt P04150)
# T1 construct: purchased Panvera/Invitrogen P2812 (kit P2893)
# T1 sequence (P04150 1-777): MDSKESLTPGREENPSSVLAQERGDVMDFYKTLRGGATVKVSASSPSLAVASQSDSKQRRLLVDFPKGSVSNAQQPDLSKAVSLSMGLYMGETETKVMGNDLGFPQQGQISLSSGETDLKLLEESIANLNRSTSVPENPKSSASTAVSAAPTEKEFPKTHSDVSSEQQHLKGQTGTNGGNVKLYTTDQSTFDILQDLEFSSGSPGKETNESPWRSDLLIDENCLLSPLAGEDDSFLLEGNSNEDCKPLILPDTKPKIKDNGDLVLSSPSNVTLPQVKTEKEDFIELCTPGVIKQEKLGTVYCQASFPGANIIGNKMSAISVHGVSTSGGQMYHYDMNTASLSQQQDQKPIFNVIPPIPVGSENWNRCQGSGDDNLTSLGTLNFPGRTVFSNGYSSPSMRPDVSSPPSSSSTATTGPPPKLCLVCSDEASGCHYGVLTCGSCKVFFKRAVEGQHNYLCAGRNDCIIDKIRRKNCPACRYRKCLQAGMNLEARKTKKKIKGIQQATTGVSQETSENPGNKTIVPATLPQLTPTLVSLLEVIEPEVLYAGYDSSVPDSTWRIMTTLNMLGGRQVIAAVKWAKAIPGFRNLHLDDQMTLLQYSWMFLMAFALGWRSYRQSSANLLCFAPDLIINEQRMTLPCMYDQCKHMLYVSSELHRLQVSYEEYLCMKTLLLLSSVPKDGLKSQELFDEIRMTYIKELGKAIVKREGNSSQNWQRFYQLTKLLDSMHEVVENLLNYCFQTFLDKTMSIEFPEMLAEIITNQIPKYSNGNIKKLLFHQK
# Experiment: Human Glucocorticoid Receptor (GR) Assay, fluorescence polarization (GRhuFL_FP_v2)
# Format: binding
# Conditions: GS Red tracer, 2 hours at room temperature, 100% control 10 μM Dexamethasone
# Method: Human Glucocorticoid Receptor (GR) Assay
# The assay is based on a commercial kit from Panvera/Invitrogen (Part number P2893). The assay technology is fluorescence polarization. […] The GR and Stabilizing Peptide reagents are stored at −70° C. while the GS Red is stored at −20° C. Also included in the kit are 1M DTT (Panvera, Part number P2325, stored at −20° C.) and GR Screening buffer 10× (Panvera, Part number P2814, stored at −70° C. initially but once thawed stored at room temperature). Avoid repeated freeze/thaws for all reagents. The GR Screening buffer 10× comprises 100 mM potassium phosphate, 200 mM sodium molybdate, 1 mM EDTA and 20% DMSO.
# 0% control was 100% DMSO and 100% control was 10 μM Dexamethasone. Background solution (8 μL; assay buffer 10×, Stabilizing Peptide, DTT and ice cold MQ water) was added to the background wells. GS Red solution (7 μL; assay buffer 10×, Stabilizing Peptide, DTT, GS Red and ice cold water) was added to all wells except background wells. GR solution (7 μL; assay buffer 10×, Stabilizing Peptide, DTT, GR and ice cold water) was added to all wells. The plate was sealed and incubated in a dark at room temperature for 2 hours.
row,Structure (SMILES),IC50 [nM]
1,"C[C@H](NS(=O)(=O)C1CC1)[C@H](Oc1cc2cnn(-c3ccc(F)cc3)c2cc1Cl)c1ccc(F)cc1 (racemic) [Example 35, N-[(1RS,2SR)-1-[6-chloro-1-(4-fluorophenyl)indazol-5-yl]oxy-1-(4-fluorophenyl)propan-2-yl]cyclopropanesulfonamide]",6.2
2,"CC(NS(=O)(=O)C1CC1)C(Oc1cc2cnn(-c3ccc(F)cc3)c2cc1Cl)c1ccc(F)cc1 (racemic) [Example 36, N-[(1RS,2RS)-1-[6-chloro-1-(4-fluorophenyl)indazol-5-yl]oxy-1-(4-fluorophenyl)propan-2-yl]cyclopropanesulfonamide]",4.3
3,"C[C@H](NS(=O)(=O)C1CC1)[C@H](Oc1cccc2c1cnn2-c1ccc(F)cc1)c1ccccc1 [Example 3, N-[(1R,2S)-1-[1-(4-fluorophenyl)indazol-4-yl]oxy-1-phenyl-propan-2-yl]cyclopropanesulfonamide]",90
4,"C[C@H](NS(=O)(=O)C1CC1)[C@H](Oc1ccc2c(cnn2-c2ccc(F)nc2)c1)c1ccccc1 [Example 4, N-[(1R,2S)-1-[1-(6-fluoropyridin-3-yl)indazol-5-yl]oxy-1-phenyl-propan-2-yl]cyclopropanesulfonamide]",4.9
5,C[C@H](NS(=O)(=O)N(C)C)[C@H](Oc1ccc2c(cnn2-c2ccc(F)cc2)c1)c1ccccc1 [Example 8],4.6
6,"C[C@H](NS(=O)(=O)CC1CCCC1)[C@H](Oc1ccc2c(cnn2-c2ccc(F)cc2)c1)c1ccccc1 [Example 20, 1-Cyclopentyl-N-[(1R,2S)-1-[1-(4-fluorophenyl)indazol-5-yl]oxy-1-phenyl-propan-2-yl]methanesulfonamide]",8.7
7,"C[C@H](NS(=O)(=O)C1CCCC1)[C@H](Oc1ccc2c(cnn2-c2ccc(F)cc2)c1)c1ccccc1 [Example 21, N-[(1R,2S)-1-[1-(4-fluorophenyl)indazol-5-yl]oxy-1-phenyl-propan-2-yl]cyclopentanesulfonamide]",9.9
8,"C[C@H](NS(=O)(=O)CC1CCCCC1)[C@H](Oc1ccc2c(cnn2-c2ccc(F)cc2)c1)c1ccccc1 [Example 23, 1-Cyclohexyl-N-[(1R,2S)-1-[1-(4-fluorophenyl)indazol-5-yl]oxy-1-phenyl-propan-2-yl]methanesulfonamide]",9.5
9,"Cc1ccc(-n2ncc3cc(O[C@H](c4ccccc4)C(C)(C)NS(=O)(=O)C4CC4)ccc32)cc1 [Example 26, (R)—N-(2-methyl-1-phenyl-1-(1-p-tolyl-1H-indazol-5-yloxy)propan-2-yl)cyclopropanesulfonamide]",77
10,"CC(C)n1ncc2cc(O[C@H](c3ccccc3)[C@H](C)NS(C)(=O)=O)ccc21 [Example 30, N-[(1R,2S)-1-phenyl-1-(1-propan-2-ylindazol-5-yl)oxy-propan-2-yl]methanesulfonamide]",330
11,"C[C@H](NS(=O)(=O)C1CC1)[C@H](Oc1ccc2c(cnn2-c2ccc(F)cc2)c1)c1ccc([S+](C)[O-])cc1 (stereo partly drawn) [Example 31, N-[(1R,2S)-1-[1-(4-fluorophenyl)indazol-5-yl]oxy-1-(4-methylsulfinylphenyl)propan-2-yl]cyclopropanesulfonamide]",6.4
12,"C[C@H](NS(=O)(=O)C1CC1)[C@H](Oc1ccc2c(cnn2C2CCCC2)c1)c1ccccc1 [Example 32, N-[(1R,2S)-1-(1-cyclopentylindazol-5-yl)oxy-1-phenyl-propan-2-yl]cyclopropanesulfonamide]",7.6
13,"CC(C)n1ncc2cc(O[C@H](c3ccccc3)[C@H](C)NS(=O)(=O)C3CC3)ccc21 [Example 33, N-[(1R,2S)-1-phenyl-1-(1-propan-2-ylindazol-5-yl)oxy-propan-2-yl]cyclopropanesulfonamide]",170
14,"O=S(=O)(NC[C@H](Sc1ccc2c(cnn2-c2ccc(F)cc2)c1)c1ccccc1)C1CC1 [Example 37, (R)—N-[2-[1-(4-fluorophenyl)indazol-5-yl]sulfanyl-2-phenyl-ethyl]cyclopropanesulfonamide]",17
15,"C[C@H](NS(C)(=O)=O)[C@H](Sc1ccc2c(cnn2-c2ccc(F)cc2)c1)c1ccccc1 [Example 38, N-((1R,2S)-1-(1-(4-fluorophenyl)-1H-indazol-5-ylthio)-1-phenylpropan-2-yl)methanesulfonamide]",4.8
16,C[C@H](NS(C)(=O)=O)[C@@H](c1ccccc1)S(=O)(=O)c1ccc2c(cnn2-c2ccc(F)cc2)c1 [Example 39],280
17,"O=S(=O)(NC[C@H](Oc1ccc2c(cnn2-c2ccc(F)cc2)c1)c1ccccc1)C1CC1 [Example 40, N-[(2R)-2-[1-(4-fluorophenyl)indazol-5-yl]oxy-2-phenyl-ethyl]cyclopropanesulfonamide]",13
18,"O=S(=O)(NC[C@@H](Oc1ccc2c(cnn2-c2ccc(F)cc2)c1)c1ccccc1)C1CC1 [Example 41, N-[(2S)-2-[1-(4-fluorophenyl)indazol-5-yl]oxy-2-phenyl-ethyl]cyclopropanesulfonamide]",250

# Now from value to molecule:
row,IC50 [nM],Structure (SMILES)
1,5.9,"C[C@H](NS(=O)(=O)Cc1ccccc1)[C@H](Oc1ccc2c(cnn2-c2ccc(F)cc2)c1)c1ccccc1 [Example 6, N-[(1R,2S)-1-[1-(4-fluorophenyl)indazol-5-yl]oxy-1-phenyl-propan-2-yl]-1-phenyl-methanesulfonamide]"
2,6.5,"C[C@H](NS(=O)(=O)CCN1C(=O)c2ccccc2C1=O)[C@H](Oc1ccc2c(cnn2-c2ccc(F)cc2)c1)c1ccccc1 [Example 10, 2-(1,3-Dioxoisoindol-2-yl)-N-[(1R,2S)-1-[1-(4-fluorophenyl)indazol-5-yl]oxy-1-phenyl-propan-2-yl]ethanesulfonamide]"
3,6.9,"COc1ccc(OCCCS(=O)(=O)N[C@@H](C)[C@H](Oc2ccc3c(cnn3-c3ccc(F)cc3)c2)c2ccccc2)cc1 [Example 11, N-[(1R,2S)-1-[1-(4-fluorophenyl)indazol-5-yl]oxy-1-phenyl-propan-2-yl]-3-(4-methoxyphenoxy)propane-1-sulfonamide]"
4,2.8,"CCS(=O)(=O)N[C@@H](C)[C@H](Oc1ccc2c(cnn2-c2ccc(F)cc2)c1)c1ccccc1 [Example 12, N-[(1R,2S)-1-[1-(4-fluorophenyl)indazol-5-yl]oxy-1-phenyl-propan-2-yl]ethanesulfonamide]"
5,5,"CCCC(C)S(=O)(=O)N[C@@H](C)[C@H](Oc1ccc2c(cnn2-c2ccc(F)cc2)c1)c1ccccc1 (stereo partly drawn) [Example 13, N-[(1R,2S)-1-[1-(4-fluorophenyl)indazol-5-yl]oxy-1-phenyl-propan-2-yl]pentane-2-sulfonamide]"
6,5.4,CCCCS(=O)(=O)N[C@@H](C)[C@H](Oc1ccc2c(cnn2-c2ccc(F)cc2)c1)c1ccccc1 [Example 15]
7,4.3,"C[C@H](NS(=O)(=O)CCC(F)(F)F)[C@H](Oc1ccc2c(cnn2-c2ccc(F)cc2)c1)c1ccccc1 [Example 18, 3,3,3-trifluoro-N-[(1R,2S)-1-[1-(4-fluorophenyl)indazol-5-yl]oxy-1-phenyl-propan-2-yl]propane-1-sulfonamide]"
8,5.1,"COC(=O)CCS(=O)(=O)N[C@@H](C)[C@H](Oc1ccc2c(cnn2-c2ccc(F)cc2)c1)c1ccccc1 [Example 19, Methyl 3-[[(1R,2S)-1-[1-(4-fluorophenyl)indazol-5-yl]oxy-1-phenyl-propan-2-yl]sulfamoyl]propanoate]"
9,2.7,"C[C@H](NS(=O)(=O)CC(F)(F)F)[C@H](Oc1ccc2c(cnn2-c2ccc(F)cc2)c1)c1ccccc1 [Example 22, 2,2,2-trifluoro-N-[(1R,2S)-1-[1-(4-fluorophenyl)indazol-5-yl]oxy-1-phenyl-propan-2-yl]ethanesulfonamide]"
10,7.6,"CCCCCCS(=O)(=O)N[C@@H](C)[C@H](Oc1ccc2c(cnn2-c2ccc(F)cc2)c1)c1ccccc1 [Example 24, N-[(1R,2S)-1-[1-(4-fluorophenyl)indazol-5-yl]oxy-1-phenyl-propan-2-yl]hexane-1-sulfonamide]"
11,7,"C[C@H](NS(=O)(=O)c1cccnc1)[C@H](Oc1ccc2c(cnn2-c2ccc(F)cc2)c1)c1ccccc1 [Example 25, N-[(1R,2S)-1-[1-(4-fluorophenyl)indazol-5-yl]oxy-1-phenyl-propan-2-yl]pyridine-3-sulfonamide]"
